Results taken from ChEMBL document CHEMBL4312023, “Design of novel monoamine oxidase-B inhibitors based on piperine scaffold: Structure-activity-toxicity, drug-likeness and efflux transport studies” (Eur J Med Chem, 2020).

Key:
[1] = Chromatographic hydrophobicity index of compound at 250 uM at pH 7.4 by HPLC analysis; assay type: ADME; conditions: pH 7.4, 250 µM
[2] = Retention time of compound at pH 7.4 by LC-UV analysis; assay type: physicochemical; conditions: buffer
[3] = biological target: T1, Amine oxidase [flavin-containing] B (Homo sapiens, UniProt P27338); test: Inhibition of human microsomal MAO-B expressed in baculovirus infected BTI-TN-5B1-4 cells assessed as reduction in 4-hydroxyquinoline formation at 10 uM using kynuramine as substrate preincubated with substrate for 10 mins followed by enzyme addition by spectrophotometric analysis; conditions: BTI-TN-5B1-4, human
T1 sequence (P27338 whole entry): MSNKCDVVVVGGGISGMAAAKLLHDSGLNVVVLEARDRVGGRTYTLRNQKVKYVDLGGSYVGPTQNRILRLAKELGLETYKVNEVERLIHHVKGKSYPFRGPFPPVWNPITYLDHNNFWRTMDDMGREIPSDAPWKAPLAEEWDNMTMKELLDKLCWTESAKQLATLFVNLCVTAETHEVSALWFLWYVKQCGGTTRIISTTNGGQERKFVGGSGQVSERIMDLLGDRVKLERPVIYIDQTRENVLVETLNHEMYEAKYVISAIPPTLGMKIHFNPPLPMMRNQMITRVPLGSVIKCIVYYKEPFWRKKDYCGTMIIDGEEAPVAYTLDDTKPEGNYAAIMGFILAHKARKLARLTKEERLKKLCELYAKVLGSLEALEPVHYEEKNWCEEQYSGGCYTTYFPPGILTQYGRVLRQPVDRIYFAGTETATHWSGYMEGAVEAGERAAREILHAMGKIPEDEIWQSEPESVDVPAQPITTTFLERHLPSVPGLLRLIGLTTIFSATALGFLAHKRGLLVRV

[4] = biological target: T2, Amine oxidase [flavin-containing] A (Homo sapiens, UniProt P21397); conditions: BTI-TN-5B1-4, human, read-out: INH
T2 sequence (P21397 whole entry): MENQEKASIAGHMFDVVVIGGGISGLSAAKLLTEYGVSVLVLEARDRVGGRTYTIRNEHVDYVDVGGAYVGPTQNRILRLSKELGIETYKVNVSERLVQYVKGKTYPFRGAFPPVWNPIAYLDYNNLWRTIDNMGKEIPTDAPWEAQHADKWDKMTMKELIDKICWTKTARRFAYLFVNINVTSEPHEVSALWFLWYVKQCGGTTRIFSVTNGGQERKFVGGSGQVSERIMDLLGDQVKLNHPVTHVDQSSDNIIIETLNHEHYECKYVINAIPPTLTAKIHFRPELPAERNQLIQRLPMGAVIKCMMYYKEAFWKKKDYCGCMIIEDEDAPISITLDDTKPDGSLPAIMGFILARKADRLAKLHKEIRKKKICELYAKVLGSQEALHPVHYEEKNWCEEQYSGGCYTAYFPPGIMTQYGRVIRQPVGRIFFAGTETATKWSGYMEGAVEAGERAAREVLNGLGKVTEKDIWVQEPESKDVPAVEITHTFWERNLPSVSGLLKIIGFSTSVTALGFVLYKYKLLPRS
Description: Inhibition of human microsomal MAO-A expressed in baculovirus infected BTI-TN-5B1-4 cells assessed as reduction in 4-hydroxyquinoline formation at 10 uM using kynuramine as substrate preincubated with substrate for 10 mins followed by enzyme inhibition by spectrophotometric analysis

[5] = biological target: T1, Amine oxidase [flavin-containing] B; test: biochemical; assay type: cell-based, BTI-TN-5B1-4
Description: Inhibition of human microsomal MAO-B expressed in baculovirus infected BTI-TN-5B1-4 cells assessed as reduction in 4-hydroxyquinoline formation using kynuramine as substrate preincubated with substrate for 10 mins followed by enzyme addition by spectrophotometric analysis

[6] = Cytotoxicity against human SH-SY5Y cells assessed as cellular metabolic activity by measuring resazurin reduction at 50 uM incubated for 24 hrs followed by incubation with resazurin for 2 hrs by fluorescence based assay (reference value: >85 %); assay type: ADME, cell-based; conditions: read-out: Activity
[7] = Cytotoxicity against human SH-SY5Y cells assessed as lysosomal activity by measuring neutral red uptake at 50 uM incubated for 24 hrs followed by incubation with neutral red solution for 2 hrs by microplate reader analysis (reference value: >85%); assay type: cell-based; conditions: read-out: Activity
Homo sapiens = organism: Homo sapiens; test: Selectivity index, ratio of IC50 for human microsomal MAO-A expressed in baculovirus infected […] cells to IC50 for human microsomal MAO-B expressed in baculovirus infected […] cells using kynuramine as substrate
[8] = Solubility of compound in sodium phosphate buffer at >10 uM at pH 7.4; assay type: physicochemical

Structure (SMILES)	CHI [1]	Retention_time [2] [min]	also measured
CCCC(=O)c1ccccc1 [BUTYROPHENONE]	88.49	11.32	
CC(=O)Nc1ccc(O)cc1 [ACETAMINOPHEN]	20.59	7.45	
O=C(/C=C/C=C/c1ccc2c(c1)OCO2)Nc1ccccc1			inhibition at 10 µM [3]: < 50%; inhibition at 10 µM [4]: < 50%
Cn1c(=O)c2[nH]cnc2n(C)c1=O.O [THEOPHYLLINE]	18.19	7.31	
Cn1c(=O)c2c(ncn2C)n(C)c1=O [CAFFEINE]	24.12	7.56	
CCCCCCC(=O)c1ccccc1	111.8	13.67	
N#C/C(=C\C=C\c1ccc2c(c1)OCO2)C(=O)Nc1ccccc1			inhibition at 10 µM [3]: < 50%; inhibition at 10 µM [4]: < 50%
c1ccc2[nH]cnc2c1 [BENZIMIDAZOLE]	30.71	8	
O=C(/C=C/C=C/c1ccc2c(c1)OCO2)Oc1ccccc1			IC50 [5]: 156 nM; viability at 24 h, 50 µM [6]: 79.7%; viability at 24 h, 50 µM [7]: 59.4%; Ratio IC50 (Homo sapiens): > 64; solubility [8]: Insoluble
N#C/C(=C\C=C\c1ccc2c(c1)OCO2)C(=O)Oc1ccccc1			inhibition at 10 µM [4]: < 50%; IC50 [5]: 215 nM; Ratio IC50 (Homo sapiens): > 47
c1ccc2[nH]ccc2c1 [INDOLE]	69.15	10.27	
CCCCC(=O)c1ccccc1 [VALEROPHENONE]	97.67	12.04	
NC(=O)N1c2ccccc2C=Cc2ccccc21 [CARBAMAZEPINE]	58.45	9.3	
O=C(/C=C/C=C/c1ccc2c(c1)OCO2)NCc1ccccc1			inhibition at 10 µM [3]: < 50%; inhibition at 10 µM [4]: < 50%
